In PMC5988692, “AZ304, a novel dual BRAF inhibitor, exerts anti-tumour effects in colorectal cancer independently of BRAF genetic status” (British Journal of Cancer, 2018):
Read-outs that look alike come from different tables or passages of the source.

Experiments:
CRAF = CRAF (Homo sapiens, UniProt P04049); experiment: AlphaScreen kinase assay (MEK1/2 phosphorylation); type: biochemical; details: wild type CRAF, ATP Km
Method: (§1) For RAF kinases, detailed assay information was described in ref.[18] Briefly, the kinase activity of BRAF WT, BRAF V600E, or CRAF was measured using an AlphaScreen assay (Perkin Elmer, MA) monitoring MEK1/2 phosphorylation at Ser217/221. For CDK2 and CDK4 kinases, activity was also measured by AlphaScreen, monitoring phosphorylation of biotin Rb peptide at Ser780. Similarly, MAP3K7, CSF1R and JAK2 kinase activity was measured by phosphorylation of their biotinylated substrates MKK6 kinase dead protein at Ser271/Thr275, or tyrosine phosphorylation of pEY or Tyk2 Tyr1054/1055 peptides, respectively. CSK, IGF1R, EGFR, FGFR1 and SRC kinase activity was measured using a sandwich ELISA detecting phosphorylated poly EAY peptide with a HRP conjugated phosphotyrosine antibody and TMB substrate, while p38 kinase activity was measured by monitoring phosphorylation of MBP protein with radiolabeled ^33P-ATP in a filter binding format. All assays were screened under respective ATP Km conditions and inhibitor IC50s were derived from either 5 (RAF kinases, CDK2, CDK4, MAP3K7, JAK2), 10 (CSK, IGF1R, EGFR, FGFR1, SRC) or 11 (p38, CSF1R) point compound dose response.

BRAF = BRAF (Homo sapiens, UniProt P15056); experiment: AlphaScreen kinase assay (MEK1/2 phosphorylation); type: biochemical; details: wild type BRAF, ATP Km
Method: as §1

BRAFV600E = BRAFV600E (Homo sapiens, UniProt P15056, V600E); experiment: AlphaScreen kinase assay (MEK1/2 phosphorylation); type: biochemical; details: ATP Km
Method: as §1

[1] = test system: RKO, HT-29, DiFi and Caco-2 cells; experiment: MTT assay with EGF stimulation; type: cell-based, human; details: four CRC cell lines, AZ304 + EGF (20 ng/ml) vs AZ304 alone, 72 h
Method: The proliferation assays in selected colorectal cancer cell lines were measured using a 3-(4,5-dimethyl thiazol-2-yl)-2,5-diphenyl tetrazolium bromide (MTT) assay. First of all, cultured cells were seeded into 96-well plates (2000–5000 cells per well). After incubation for 24 h, the cells were pretreated with DMSO or AZ304 for 1 h. Then the indicated doses of Cetuximab were added. Cells were incubated for a further 48 or 72 h. For EGF stimulating assay, cells were incubated in reduced serum medium overnight and then treated with AZ304 or AZ304 + EGF (20 ng/ml) for 72 h. Twenty microliter of MTT solution (5 mg/ml) was added to each well followed by 4 h incubation at 37 °C. The cell culture medium was removed and the cells were lysed in 200 μl dimethylsulphoxide (DMSO) and the results were measured using a microplate reader (Model 550, Bio-Rad Laboratories, Hercules, CA, USA).
Fig. 5 Anti-proliferative activity of AZ304 cannot be retained by EGF in CRC cell lines with different BRAF mutation status. a Two V600E mutant BRAF cell lines (RKO, HT-29) and two wild type BRAF cell lines (DiFi, Caco-2) were serum starved overnight and then treated with the indicated AZ304 or AZ304 + EGF for 72 h. […]

p38 = p38 (Homo sapiens, UniProt Q16539); experiment: 33P-ATP filter binding kinase assay (MBP phosphorylation); type: biochemical; details: ATP Km
Method: as §1

p-ERK in SK-MEL-31 cells = experiment: SK-MEL-31 p-ERK cellular assay; type: cell-based; details: Homo sapiens, 1.25 h, read-out: EC50, reduction of p-ERK
[2] = Xenograft study, animal health and body weight; type: in vivo; details: RKO and Caco-2 xenograft mice, 10 days treatment
Method: All in vivo experiments were performed in accordance with Institutional Review Board of China Medical University guidelines. Female 4–6 weeks old athymic BALB/c nude mice were purchased from Shanghai SLAC Laboratory Animal Centre (Shanghai, China). RKO/Caco-2 cells (1 × 10^7) in 200 μl PBS were injected subcutaneously into the right scapular region of mice. […] Tumours were measured with a caliper every 2 days, so did body weights. Tumour volume was calculated using the formula V = 1/2 (width^2 × length). Mice were terminated by CO2 inhalation when the tumour diameters reached 1.5 cm, according to the protocol filed with the Guidance of Institutional Animal Care and Use Committee of China Medical University.
Supplementary Figure 2 Weights of xenografts from RKO and Caco-2 cells was measured every 2 days.

p-ERK in A375 cells = experiment: A375 p-ERK cellular assay; type: cell-based; details: Homo sapiens, A-375, 1.25 h; A375 (V600E mutant BRAF melanoma), 75 min; read-out: mean EC50, reduction of ERK phosphorylation (p-ERK)
Method: A375 cells were seeded into 96-well micro plates (Costar, Corning, and Lowell, MA) at […] in phenol red free DMEM (Invitrogen, Carlsbad, CA) supplemented with 10% foetal bovine serum. After 48 h, the cells were treated with DMSO or multiple concentrations of AZ304 and then returned to the incubator for 75 min. Medium were then aspirated and cells were fixed with a 6% formaldehyde solution for 20 min at room temperature. Cells were washed once with PBS containing 0.05% Triton X-100 (PBST) and 0.6% hydrogen peroxide added for 20 min at room temperature. After washing again in PBST, cells were blocked with 10% FBS/PBST solution for 1 h at room temperature. After washing, p-ERK monoclonal antibody was added and the plates were placed at 4 °C for overnight. […] Quantification of signal was determined at OD405 using a SpectraMax plate reader (Molecular Devices, Sunnyvale, CA). […] EC50 was calculated using XLift.
Cells were incubated with DMSO or AZ304 for 75 min and p-ERK levels were determined using a p-ERK antibody based ELISA. […] Cells were incubated with DMSO or AZ304 (±EGF) for 75 min and p-ERK levels were determined using a p-ERK antibody based ELISA. […]

Chain of BRAF (P15056 457-717 limits assumed): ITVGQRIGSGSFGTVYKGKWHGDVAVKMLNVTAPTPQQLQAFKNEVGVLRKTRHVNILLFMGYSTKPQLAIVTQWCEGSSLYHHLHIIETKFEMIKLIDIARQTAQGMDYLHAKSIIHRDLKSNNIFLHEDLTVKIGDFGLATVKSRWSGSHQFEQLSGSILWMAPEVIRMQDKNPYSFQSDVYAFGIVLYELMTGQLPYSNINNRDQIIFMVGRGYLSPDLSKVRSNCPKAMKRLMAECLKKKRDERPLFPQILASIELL
Chain of CRAF (P04049 349-609 limits assumed): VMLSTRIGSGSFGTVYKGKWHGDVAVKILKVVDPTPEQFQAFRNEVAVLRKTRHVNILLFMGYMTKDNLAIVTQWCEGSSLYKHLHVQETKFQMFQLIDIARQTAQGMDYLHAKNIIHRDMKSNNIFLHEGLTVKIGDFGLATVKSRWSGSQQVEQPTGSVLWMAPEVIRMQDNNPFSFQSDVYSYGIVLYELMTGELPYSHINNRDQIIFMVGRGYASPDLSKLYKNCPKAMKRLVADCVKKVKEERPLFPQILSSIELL
Chain of p38 (Q16539 whole entry): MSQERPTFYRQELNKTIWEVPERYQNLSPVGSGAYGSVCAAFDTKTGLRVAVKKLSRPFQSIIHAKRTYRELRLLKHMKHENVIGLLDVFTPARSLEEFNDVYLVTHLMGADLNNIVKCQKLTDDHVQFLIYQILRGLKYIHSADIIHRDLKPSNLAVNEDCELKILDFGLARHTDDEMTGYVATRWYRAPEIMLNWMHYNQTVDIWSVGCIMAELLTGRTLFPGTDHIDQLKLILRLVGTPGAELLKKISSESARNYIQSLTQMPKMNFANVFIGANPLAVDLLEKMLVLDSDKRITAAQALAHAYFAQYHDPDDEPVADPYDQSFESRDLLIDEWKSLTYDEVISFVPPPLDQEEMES
Chain of BRAFV600E (P15056 457-717 V600E limits assumed): as the sequence (P15056 457-717 limits assumed) above, with V144E counted along it

## COc1ccc2c(Nc3cc(NC(=O)c4cccc(C(C)(C)C#N)c4)ccc3C)ncnc2c1 [AZ304]
CRAF
  IC50: 0.068 µM
BRAF
  IC50: 0.079 µM
BRAFV600E
  IC50: 0.038 µM
[1]
  change of anti-proliferative effects after combined treatment with EGF: no significant reduction of anti-proliferative effects
p38
  IC50: 0.006 µM
p-ERK in SK-MEL-31 cells; SK-MEL-31 (wild type BRAF melanoma), 75 min, without EGF
  EC50: 0.06 µM
p-ERK in SK-MEL-31 cells; SK-MEL-31, 75 min, with EGF stimulation
  EC50: 0.052 µM
[2]
  tolerability (animal health, body weight): without obvious toxicity
p-ERK in A375 cells
  EC50: 0.065 µM
